Experimental data: article PMC5216056 (Nature Communications, 2017)
Where two headings read alike, the source gives them in different places.

Legend:
mCB2R [1] = biological target: T1, mCB2R (Mus musculus, UniProt P47936); test: biochemical; assay type: binding; set-up: from tissue; host or cells: spleen of male C57BL/6J mice
[2] = for Pct donor / Pct membrane / Pct acceptor: PAMPA; for Pct membrane: compound found in membranes; for Pampa Peff: membrane permeation coefficient
[3] = 1 μM
human NAPE-PLD = biological target: T2, human NAPE-PLD (Homo sapiens, UniProt Q6IQ20); test: NAPE-PLD inhibition; assay type: biochemical; conditions: for inhibition at 10 µM: read-out: NAPE-PLD % inhibition at 10 µM ± SD
T2 construct: Full length human cDNA NAPE-PLD was obtained from Natsuo Ueda; expressed in transfected cells; host or cells: HEK293T (transient), membrane fraction
Experimental: Full length human cDNA NAPE-PLD was obtained from Natsuo Ueda[58] and cloned into mammalian expression vector pcDNA3.1, containing a C-terminal Flag-tag and genes for ampicillin and neomycin resistance. All plasmids were grown in XL-10 Z-competent cells and prepped (Maxi Prep, Qiagen). Sequence analysis for the confirmation of the sequences was performed at the Leiden Genome Technology Centre.
HEK293T cells (source: Dutch Cancer Institute) were cultured at 37 °C and 7% CO2 in DMEM with glutamax, penicillin (100 μg ml^−1), streptomycin (100 μg ml^−1) and 10% New Born Calf Serum iron supplemented (Hyclone SH30072.03). Cells were passaged twice a week to appropriate confluence. Twenty-four hours before transfection 10^7 cells were seeded on a 15 cm dish. Two hours before transfection, the medium was refreshed. Transfection is performed with PEI in a ratio of 3:1 with human NAPE-PLD or Mock pcDNA3.1Neo, 20 μg per dish. Medium is refreshed after 24 h and cells are harvested after 72 h. Cell suspensions are centrifuged at 1,000g for 10 min, supernatant removed and pellets frozen at −80 °C until further use.
Cell pellets are re-suspended in lysis buffer 1: 20 mM Hepes, 2 mM DTT, 0.25 M sucrose, 1 mM MgCl2, 2.5 U ml^−1 benzonase and incubated 30 min on ice. The cytosolic fraction (supernatant) is separated from the membranes by ultra-centrifugation (32,000 rpm for 30 min 100,000g). The pellet is resuspended in buffer 2: 20 mM Hepes, 2 mM DTT (membrane fraction). All samples are stored at −80 °C. Enzyme concentrations are determined using a Bradford assay.
The membrane protein fraction from transient overexpression of NAPE-PLD in HEK293T cells was diluted to 0.4 mg ml^−1 in assay buffer: 50 mM Tris-HCl (pH 7.5), 0.02% Triton X-100, 150 mM NaCl (ref. [60]). […] Relevant concentrations of compounds are prepared in DMSO. The assay is performed in a dark Greiner 96-well plate, end volume 100 μl. The compound or DMSO is incubated with membrane protein lysate (final concentration 0.04 mg ml^−1) for 30 min at 37 °C. A sample without membrane protein lysate is incorporated for background subtraction. Then, substrate is added (final concentration 1 μM) and the measurement is started immediately on a TECAN infinite M1000 pro at 37 °C (excitation 485 nm, emission 535 nm), scanning every 2 min for 1 h.

[4] = tested on: AEA reuptake in HaCaT cells; test: cells; assay type: cell-based, human; conditions: for AEA reuptake Efficacy (% inhibition) HaCaT cells: from dose-response; for IC50: read-out: AEA reuptake IC50 (95% CI) HaCaT cells; for inhibition at 10 µM: read-out: AEA reuptake % inhibition, effect at 10 µM, HaCaT cells; for inhibition at 10 µM / AEA reuptake % inhibition, effect at 10 µM, HaCaT cells: 10 µM (values marked *)
hCB1R = biological target: T3, hCB1R (Homo sapiens, UniProt P21554); test: cell-based; assay type: cell-based; conditions: for Emax: read-out: Emax ± SEM β-AR recruitment hCB1R
T3 construct: host or cells: CHO

mCB2R [5] = biological target: T1, mCB2R; test: biochemical; assay type: biochemical; set-up: from tissue; host or cells: spleen of male C57BL/6J mice; conditions: for Emax: read-out: Emax cAMP mCB2R
hCB2R = hCB2R (Homo sapiens, UniProt P34972); test: cell-based; assay type: cell-based; conditions: for Emax: read-out: Emax ± SEM β-AR recruitment hCB2R
GR (h) = biological target: T4, GR (h) (Homo sapiens, UniProt P04150); test: CEREP panel; assay type: binding; conditions: for inhibition at 10 µM: read-out: % inhibition GR (h)
T4 construct: CEREP (contract assay)
T4 sequence (P04150 1-777): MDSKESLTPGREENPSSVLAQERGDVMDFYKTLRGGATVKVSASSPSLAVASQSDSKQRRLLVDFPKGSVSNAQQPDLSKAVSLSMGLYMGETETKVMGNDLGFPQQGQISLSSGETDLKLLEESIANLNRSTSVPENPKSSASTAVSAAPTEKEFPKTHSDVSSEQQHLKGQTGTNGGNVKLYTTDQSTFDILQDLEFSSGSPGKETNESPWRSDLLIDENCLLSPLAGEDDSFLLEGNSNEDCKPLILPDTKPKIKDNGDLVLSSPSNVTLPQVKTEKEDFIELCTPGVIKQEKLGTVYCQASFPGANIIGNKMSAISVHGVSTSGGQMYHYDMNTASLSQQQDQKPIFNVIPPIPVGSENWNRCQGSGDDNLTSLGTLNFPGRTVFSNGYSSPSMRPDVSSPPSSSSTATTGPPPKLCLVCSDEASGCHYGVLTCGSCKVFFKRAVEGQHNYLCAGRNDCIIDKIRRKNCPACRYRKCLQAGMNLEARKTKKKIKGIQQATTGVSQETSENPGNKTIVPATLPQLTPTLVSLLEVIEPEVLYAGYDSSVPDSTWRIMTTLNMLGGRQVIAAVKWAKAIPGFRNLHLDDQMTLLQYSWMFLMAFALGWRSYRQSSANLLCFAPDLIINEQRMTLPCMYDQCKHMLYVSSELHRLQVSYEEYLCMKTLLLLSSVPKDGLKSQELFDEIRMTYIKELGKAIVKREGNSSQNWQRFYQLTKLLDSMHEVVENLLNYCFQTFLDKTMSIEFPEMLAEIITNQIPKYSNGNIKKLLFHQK

N muscle-type (h) = biological target: T5, N muscle-type (h) (Homo sapiens, UniProt P02708+P07510+P11230+Q07001); test: CEREP panel; assay type: binding; conditions: for % inhibition N muscle-type (h): 10 µM
T5 construct: CEREP (contract assay)

[6] = mouse spleen membranes, read-out: pKi ± SEM mCB2R (converted)
[7] = mouse spleen, read-out: pEC50 ± SEM cAMP mCB2R (converted)

T1 sequence (P47936 whole entry): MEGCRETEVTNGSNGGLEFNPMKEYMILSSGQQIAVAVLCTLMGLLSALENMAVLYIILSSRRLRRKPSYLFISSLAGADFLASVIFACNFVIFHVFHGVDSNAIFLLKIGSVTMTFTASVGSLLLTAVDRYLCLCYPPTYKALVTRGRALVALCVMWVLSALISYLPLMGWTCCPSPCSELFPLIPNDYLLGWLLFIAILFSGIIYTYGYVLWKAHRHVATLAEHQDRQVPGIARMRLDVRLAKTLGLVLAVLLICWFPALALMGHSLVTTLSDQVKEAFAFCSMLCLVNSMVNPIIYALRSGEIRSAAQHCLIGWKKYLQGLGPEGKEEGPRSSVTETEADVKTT
Chain of hCB2R (P34972 whole entry): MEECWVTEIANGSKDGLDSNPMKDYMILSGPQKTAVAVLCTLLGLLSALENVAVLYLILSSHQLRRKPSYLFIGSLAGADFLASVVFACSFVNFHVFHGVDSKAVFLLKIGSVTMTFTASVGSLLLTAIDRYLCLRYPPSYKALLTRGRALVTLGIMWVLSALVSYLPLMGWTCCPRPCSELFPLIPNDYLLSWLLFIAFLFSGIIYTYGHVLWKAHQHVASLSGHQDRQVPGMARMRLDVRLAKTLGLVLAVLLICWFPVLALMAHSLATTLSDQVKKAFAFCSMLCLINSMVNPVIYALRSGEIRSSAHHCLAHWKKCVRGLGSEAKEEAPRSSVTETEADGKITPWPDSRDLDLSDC
T2 sequence (Q6IQ20 whole entry): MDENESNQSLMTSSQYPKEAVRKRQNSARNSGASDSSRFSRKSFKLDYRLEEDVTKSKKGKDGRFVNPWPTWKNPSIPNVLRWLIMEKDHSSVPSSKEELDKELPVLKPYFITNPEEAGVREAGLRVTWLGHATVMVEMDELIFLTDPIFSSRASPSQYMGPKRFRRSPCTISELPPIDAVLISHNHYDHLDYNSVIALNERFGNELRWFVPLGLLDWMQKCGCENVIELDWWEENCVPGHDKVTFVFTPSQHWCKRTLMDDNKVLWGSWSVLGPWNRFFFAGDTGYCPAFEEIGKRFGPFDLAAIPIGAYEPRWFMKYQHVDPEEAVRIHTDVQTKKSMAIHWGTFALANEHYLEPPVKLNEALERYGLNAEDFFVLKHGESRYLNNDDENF
T5 sequence (P02708 21-457): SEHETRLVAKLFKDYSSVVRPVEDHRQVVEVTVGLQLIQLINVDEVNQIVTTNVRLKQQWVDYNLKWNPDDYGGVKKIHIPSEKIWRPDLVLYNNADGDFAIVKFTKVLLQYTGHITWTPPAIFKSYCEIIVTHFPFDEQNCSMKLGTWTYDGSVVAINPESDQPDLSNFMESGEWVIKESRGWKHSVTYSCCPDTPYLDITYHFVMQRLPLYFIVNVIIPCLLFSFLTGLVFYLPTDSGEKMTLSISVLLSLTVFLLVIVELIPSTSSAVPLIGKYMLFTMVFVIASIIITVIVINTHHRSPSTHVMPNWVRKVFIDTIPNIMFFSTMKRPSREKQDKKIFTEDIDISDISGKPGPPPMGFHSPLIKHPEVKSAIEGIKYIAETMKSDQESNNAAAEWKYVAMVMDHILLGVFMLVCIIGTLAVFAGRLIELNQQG
T5 sequence (P11230 24-501): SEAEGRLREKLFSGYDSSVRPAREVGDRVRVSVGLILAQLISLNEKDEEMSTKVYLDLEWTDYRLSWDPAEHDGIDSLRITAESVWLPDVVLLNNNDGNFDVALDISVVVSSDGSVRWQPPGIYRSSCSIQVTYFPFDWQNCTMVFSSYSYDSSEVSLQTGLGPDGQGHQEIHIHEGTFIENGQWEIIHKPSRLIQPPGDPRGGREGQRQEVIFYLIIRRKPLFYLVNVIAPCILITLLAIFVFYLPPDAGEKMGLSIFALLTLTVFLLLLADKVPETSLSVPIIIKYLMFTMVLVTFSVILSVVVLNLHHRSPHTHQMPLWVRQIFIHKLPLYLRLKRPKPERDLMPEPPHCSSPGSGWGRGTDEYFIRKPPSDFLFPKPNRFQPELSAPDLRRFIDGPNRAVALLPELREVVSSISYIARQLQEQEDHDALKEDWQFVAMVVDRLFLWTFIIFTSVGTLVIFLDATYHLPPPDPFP
T5 sequence (Q07001 22-517): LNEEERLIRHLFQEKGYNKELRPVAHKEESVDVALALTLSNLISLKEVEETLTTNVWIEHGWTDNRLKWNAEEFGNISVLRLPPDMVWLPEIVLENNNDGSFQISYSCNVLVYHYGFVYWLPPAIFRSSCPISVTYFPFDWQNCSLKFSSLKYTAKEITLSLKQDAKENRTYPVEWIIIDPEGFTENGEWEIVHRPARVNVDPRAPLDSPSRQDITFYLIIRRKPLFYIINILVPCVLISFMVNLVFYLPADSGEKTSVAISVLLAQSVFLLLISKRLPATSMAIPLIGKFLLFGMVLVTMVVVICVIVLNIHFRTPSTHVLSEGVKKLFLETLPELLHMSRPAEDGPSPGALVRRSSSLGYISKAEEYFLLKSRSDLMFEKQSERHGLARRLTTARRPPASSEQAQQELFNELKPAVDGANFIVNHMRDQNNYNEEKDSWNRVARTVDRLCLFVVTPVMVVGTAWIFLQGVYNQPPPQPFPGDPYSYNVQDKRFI
T5 sequence (P07510 23-517): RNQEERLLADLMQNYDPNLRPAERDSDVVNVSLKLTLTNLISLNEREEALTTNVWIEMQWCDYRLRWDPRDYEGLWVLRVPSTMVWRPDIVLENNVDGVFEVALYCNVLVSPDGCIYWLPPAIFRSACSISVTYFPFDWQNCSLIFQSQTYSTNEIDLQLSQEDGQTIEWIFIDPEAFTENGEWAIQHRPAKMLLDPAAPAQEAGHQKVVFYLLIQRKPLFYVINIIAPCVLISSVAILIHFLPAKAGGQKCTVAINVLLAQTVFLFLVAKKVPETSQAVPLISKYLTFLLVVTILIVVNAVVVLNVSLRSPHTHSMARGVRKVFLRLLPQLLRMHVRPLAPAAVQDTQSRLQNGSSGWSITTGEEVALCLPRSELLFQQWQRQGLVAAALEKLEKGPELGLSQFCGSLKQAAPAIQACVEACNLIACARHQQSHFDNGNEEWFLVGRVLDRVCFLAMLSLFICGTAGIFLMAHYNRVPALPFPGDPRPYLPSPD
T3 sequence (P21554 whole entry): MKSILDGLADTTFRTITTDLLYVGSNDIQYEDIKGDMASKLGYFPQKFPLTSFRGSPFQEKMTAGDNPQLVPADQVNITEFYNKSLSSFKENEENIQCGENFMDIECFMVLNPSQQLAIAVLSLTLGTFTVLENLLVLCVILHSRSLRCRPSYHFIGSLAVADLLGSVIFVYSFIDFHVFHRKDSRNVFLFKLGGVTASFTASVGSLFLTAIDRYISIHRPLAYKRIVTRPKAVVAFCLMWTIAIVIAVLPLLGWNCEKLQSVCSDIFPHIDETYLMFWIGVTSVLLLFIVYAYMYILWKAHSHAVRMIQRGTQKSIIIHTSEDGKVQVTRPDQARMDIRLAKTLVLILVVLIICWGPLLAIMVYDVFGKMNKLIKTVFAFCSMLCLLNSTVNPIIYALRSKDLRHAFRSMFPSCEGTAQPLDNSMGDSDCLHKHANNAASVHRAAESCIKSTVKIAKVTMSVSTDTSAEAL

Row | Compound | Pct donor [2] | Pct membrane [2] | Pampa Peff [2] | NAPE-PLD % inhibition at 10 µM ± SD (human NAPE-PLD) | AEA reuptake Efficacy (% inhibition) HaCaT cells [4] | IC50 [4] | Emax ± SEM β-AR recruitment hCB1R (hCB1R) | Emax ± SEM β-AR recruitment hCB2R (hCB2R) | inhibition at 10 µM (human NAPE-PLD) | IC50 ([4]; Homo sapiens, HaCaT) | Emax (mCB2R [5]) | Emax (hCB2R) | Pct acceptor [2] | % inhibition GR (h) (GR (h); 10 µM) | further results
1 | CN1CCCCC1Cn1cc(C(=O)c2cc([N+](=O)[O-])ccc2I)c2ccccc21 (racemic) [(rac)-AM1241] | 41.3% | 55.7% | 1.86±0.62 cm/s*10-6 | 29 ± 11% | 80% | 4010 nM | 6 ± 5 | 14 ± 2 | – | – | – | – | – | – | CB2R Selectivity (binding, mouse) (mCB2R [1]): 66 fold; pKi ± SEM mCB2R (mCB2R [1]; mouse spleen membranes): 7.73 ± 0.25; CL microsomes human [3]: 111 µL/min/mg protein; pEC50 ± SEM β-AR recruitment hCB1R (hCB1R): < 5; Emax cAMP mCB2R (mCB2R [5]): -6; pEC50 ± SEM cAMP mCB2R (mCB2R [5]; mouse spleen): 7.03 ± 0.26; pEC50 ± SEM β-AR recruitment hCB2R (hCB2R): < 5
2 | CCCCC/C=C\C/C=C\C/C=C\C/C=C\CCCC(=O)OC(CO)CO [2-AG, 2-arachidonoyl glycerol] | – | – | – | – | – | – | – | – | -1 ± 12% | > 5000 nM | 53% | 80 ± 21% | – | – | Ki (mCB2R [1]; [6]): 29.5 nM; inhibition at 10 µM ([4]; Homo sapiens, HaCaT): 60%; EC50 (mCB2R [5]; [7]): 70.8 nM; EC50 (hCB2R): 2000 nM
3 | CN1CCCC[C@@H]1Cn1cc(C(=O)c2cc([N+](=O)[O-])ccc2I)c2ccccc21 [(R)-AM1241] | 38.3% | 59.7% | 1.22 cm/s*10-6 | 21 ± 5% | – | > 5000 nM | 26 ± 2 | 29 ± 4 | – | – | – | – | 2.1% | – | CB2R Selectivity (binding, mouse) (mCB2R [1]; 10^(pKi CB2R-pKi CB1R)): 17 fold; pKi ± SEM mCB2R (mCB2R [1]; mouse spleen membranes): 7.59 ± 0.11; CL microsomes human [3]: 304 µL/min/mg protein; AEA reuptake % inhibition, effect at 10 µM, HaCaT cells [4]: 25%; pEC50 ± SEM β-AR recruitment hCB1R (hCB1R): 5.59 ± 0.13; Emax cAMP mCB2R (mCB2R [5]): -22; CB2R Selectivity cAMP (mouse) (mCB2R [5]; 10^(pEC50 CB2R-pEC50 CB1R)): 12 fold; pEC50 ± SEM cAMP mCB2R (mCB2R [5]; mouse spleen): 6.17 ± 0.23; pEC50 ± SEM β-AR recruitment hCB2R (hCB2R): 7.52 ± 0.43; CB2R Selectivity β-AR recruitment (hCB2R; 10^(pEC50 CB2R-pEC50 CB1R)): 86 fold
4 | Cc1c(C(=O)NN2CCCCC2)nn(-c2ccc(Cl)cc2Cl)c1-c1ccc(I)cc1 [AM251] | – | – | – | 10 ± 12% | – | – | – | -104 ± 8 | – | – | – | – | – | 84% | % inhibition N muscle-type (h) (N muscle-type (h)): 12%
5 | CCCCC/C=C\C/C=C\C/C=C\C/C=C\CCCC(=O)NCCO [Anandamide, N-arachidonoylethanolamine] | 96.3% | 2.7% | 0.26 cm/s*10-6 | – | 86% | – | – | – | 17 ± 9% | 270 nM | 48% | 38 ± 3% | 1.2% | – | Ki (mCB2R [1]): 347 nM; EC50 (mCB2R [5]): 151 nM
6 | CCCCCCC(C)(C)c1ccc([C@@H]2C[C@H](O)CC[C@H]2CCCO)c(O)c1 [CP55940] | – | – | 0 cm/s*10-6 | – | – | – | – | – | 10 ± 8% | > 10000 nM | 100% | 80 ± 5% | – | 94% | Ki (mCB2R [1]; [6]): 0.603 nM; inhibition at 10 µM (GR (h); 10 µM): 92%; inhibition at 10 µM (N muscle-type (h)): -4%; inhibition at 10 µM ([4]; Homo sapiens, HaCaT): 13%; Emax (hCB1R): 94 ± 2%; EC50 (mCB2R [5]; [7]): 0.0676 nM
7 | CCCCCCC(C)(C)c1cc(OC)c([C@@H]2C=C(CO)[C@@H]3C[C@H]2C3(C)C)c(OC)c1 [HU308] | 23.1% | 74.3% | 2.53 cm/s*10-6 | – | 69% | – | – | – | 2 ± 7% | 2210 nM | 56% | 57 ± 10% | 2.8% | – | Ki (mCB2R [1]): 70.8 nM; inhibition at 10 µM (GR (h)): 4%; EC50 (hCB1R): > 10000 nM; Emax (hCB1R): 5 ± 1%; EC50 (mCB2R [5]): 3.72 nM
8 | Cc1c(C(=O)NN2CCCCC2)nn(-c2ccc(Cl)cc2Cl)c1-c1ccc(Cl)cc1 [SR141716A] | 25.2% | 74.3% | 0.27±0.11 cm/s*10-6 | – | 80% | – | – | – | 0% | – | – | – | 0.3% | – | inhibition at 10 µM (GR (h); 10 µM): 43%
9 | SR144528 | – | – | – | 8 ± 10% | – | > 10000 nM | -82 ± 5 | – | – | – | – | – | – | 9% | % inhibition N muscle-type (h) (N muscle-type (h)): -3%; AEA reuptake % inhibition, effect at 10 µM, HaCaT cells [4]: 20%; Emax cAMP mCB2R (mCB2R [5]; normalized to 10 µM CP55940): -100%; Emax ± SEM β-AR recruitment hCB2R (hCB2R; normalized to 10 µM CP55940, negative = inhibition of EC80 of CP55940): -111 ± 3%
